From patent publication US7470660B2, “Treatment for dark adaptation” (The Regents of the University of California, priority 2001, dated 2008)
“Also recorded” adds a separate entry of the source.

Experiments:
[1] = system: apo E secretion from RPE cells; test: Apo E secretion from RPE cells, ELISA; type: cell-based, human; details: 36 hours, serum free DMEM; 10^-7 M T3; 2.5x10^-6 M 22(R) hydroxycholesterol; 10^-7 M cis retinoic acid; alone and in combination; FIG. 14
Method: RPE cells were treated for 36 hours on Transwell® plates with serum free DMEM +/− the drugs indicated. Control refers to no drug addition, T refers to 10^−7 M T3; HC refers to 2.5×10^−6 M 22(R) hydroxycholesterol; RA refers to 10^−7 M cis retinoic acid. N=6, * indicates p<0.05 (two-tailed t-test) compared to Control.
Media samples treated with 0.1% Tween-20 containing 1% bovine serum albumin were incubated (37° C., 4 h) in 96-well plates previously coated with apo E-affinity purified goat anti-apo E antibody. Apo E was detected using a secondary antibody-peroxidase conjugate and 3.3.5.5′-[…] (TMB) substrate. Optical density was measured at 450 nm. The assay was calibrated with purified plasma apo E. The dynamic range of the assay was 1-40 ng/ml apo E with a CV<5%.

[2] = system: apo E secretion from RPE cells; test: Apo E secretion into basal media of RPE cells, western blot; type: cell-based, human; details: 36 hour incubation, both chambers, T3 10^-7 M, 22 (R) hydroxycholesterol 2.5x10^-6 M, cis retinoic acid 10^-7 M (10^-6 M elsewhere in the source), FIG. 6
Method: Primary cultures of normal human RPE cells from passages 5 to 10 were used for the experiments described. RPE cells were grown to confluence on laminin-coated 6 well Transwell tissue culture plates (Costar) with DMEM-H21 containing 10% fetal bovine serum, 2 mM glutamine, 50 μg/ml gentamicin and 2.5 mg/ml fungizone in the top and bottom chambers. […] Cells were grown for at least 1 week at confluence prior to drug treatment. Cells to be treated with drugs were incubated in serum free DMEM-H21 prior to drug addition. Drug treatments were in serum free DMEM-H21 with or without 10^−7 M thyroid hormone (T3), 2.5×10^−6 M 22 (R) hydroxycholesterol, or 10^−7 M cis retinoic acid in both chambers for 36 hours.
Total protein content was determined by a modified Lowry assay (Bio-Rad DC kit, Richmond, Calif.). Concentrated media (50 μg protein) was made to Start Buffer (0.025 M NaCl, 0.010 M tris (pH 8.5), 5 mM MnCl2) and adsorbed onto a 0.1 ml column containing Heparin-Sepharose CL-4B (Pharmacia, Uppsala, Sweden). Following a 2 ml wash in Start Buffer, the apo E containing bound fraction was eluted with 0.5M NaCl in Start buffer. The eluate was concentrated to 20 μl and buffer-exchanged to SalEN by centrifugal ultrafiltration (Biomax, 5k MCO, Millipore, Bedford, Mass.). Apo E was resolved by tris-tricine buffered SDS-PAGE (5-25% linear acrylamide gradient) and proteins electrophoetically transferred (55V, 18 h) to nitrocelluose membrane filters (Schleicher and Shuell, Keen, N.H.). Membranes were blocked with 10% bovine serum albumin at room temperature and probed with 1% goat anti-human apo E antiserum (18 h, 3° C.) prepared in 0.15% NaCl, 1 mM EDTA (pH 7.4), 0.1% Triton X-100 (SalET). The primary-bound anti-apo E antibodies were detected colorimetrically with horseradish peroxidase conjugated rabbit anti-goat Ig (H+L) and NiCl2-enhanced diaminobenzine staining. Stained bands were compared densitometrically from the digitized scanned image (NIH Image, v.1.62).
In order to distinguish apical (A) from basally (B) secreted apo E, RPE cells were cultured on laminin-coated Transwell plates. […] Total protein and apo E-specific protein concentrations were measured from media pooled and concentrated from 3-6 replicate wells. To assess apo E-specific secretion, apo E was purified from conditioned media by heparin-sepharose affinity chromatography and visualized by western blotting.
Since RPE cells express lxr α as well as thyroid hormone receptors (TRs) and retinoid-X-receptors (RXRs), the effect of 10^−7 M T3, 2.5×10^−6 M 22 (R) hydroxycholesterol (HC) (an lxr α agonist), or 10^−7 M cis retinoic acid (cRA) (an RXR agonist) on apo E secretion from RPE cells was tested. FIG. 6 illustrates the same experimental procedure as described above, but with basal and apical media both containing the following compounds for a 36 hour incubation: T3 (10^−7) M (T); 9 cis-RA (10^−6) M (RA); and 22 (R) hydroxycholesterol 2.5 (10^−6) M (HC).
Control (C) refers to no drug addition; T refers to 10^−7 M T3; RA refers to 10^−7 M cis retinoic acid; and HC refers to 2.5×10^−6 M 22(R) hydroxycholesterol. Basal media from 3 wells were combined, concentrated, and apo E was detected by western blotting.

[3] = system: cultured human RPE cells; test: 14C-DHA labeled POS efflux into basal media after drug treatment; type: cell-based; details: 36 hours; 10^-7 M T3, 2.5x10^-5 M 22 (R) hydroxycholesterol or 10^-7 M cis retinoic acid; basal medium 1 mg/ml HDL; FIG. 10
Method: Bovine outer photoreceptor outer segments (POS) were labeled by incubating […] Coenzyme A, ATP, Mg^2+, and [^14C]-DHA. Cells grown on laminin coated Transwell plates were incubated with 12 μg/ml labeled POS in the apical chamber for 36 hours in medium containing 10% lipoprotein deficient fetal bovine serum. The basal medium was subjected to scintillation counting to determine the amount of [^14C] labeled lipids transported through the RPE cells.
This experiment determines whether compound administration can upregulate efflux of labeled POS residues to HDL, particularly by showing regulation of ^14C-DHA labeled POS efflux into basal media. An assay similar to that described in Example 4 is utilized; however, in this Example the cells were treated with T3, 9 cis-retinoic acid, and 22 (R) hydroxycholesterol in the concentrations described above for 36 hours. Total radioactivity (cpm) in the absence of HDL purification was determined by liquid scintillation counting of the basal media.
Specifically, cells were grown for 1 to 2 weeks at confluence on Transwell plates. ^14C-labeled POS […] were added to the apical medium. The apical and basal medium comprised either 10^−7 M T3, 2.5×10^−5 M 22 (R) hydroxycholesterol, or 10^−7 M cis retinoic acid. The basal medium contained 1 mg/ml HDL. After 36 hours the basal medium was collected and ^14C counts were determined by scintillation counting.

[4] = system: Human retinal pigment epithelial cells; test: 14C-labeled lipid efflux from RPE cells with HDL, apoA-I or apoA-I vesicles; type: cell-based; details: basal chamber, 36 hours, vs Control; FIG. 19
Method: The present inventors have created liposomes comprising apoA-I (artificial preβ1 HDL). Artificial discoidal apoA-I liposomes comprising purified human plasma apoAI, the saturated phospholipid dimyristoyl-L-α-phoshatidylcholine (DMPC) and cholesterol were constructed by the sodium cholate dialysis method. Liposomes were prepared using a molar ratio of approximately 1/5/95, apoA-I/free cholesterol/DMPC. Human retinal pigment epithelial cells grown on 6 well laminin coated Transwell® plates were fed ^14C-docosahexaenoic acid labeled photoreceptor outer segments in medium containing 5% lipoprotein free fetal bovine serum for 36 hours (apical chamber). Basal chambers contained serum free medium and either no human high density lipoprotein (HDL) (Control), 100 μg/ml of human HDL, pure human apoA-I, or human apoA-I vesicles. An aliquot of the basal medium was subjected to liquid scintillation counting. Wells were treated in triplicate. HDL stimulated ^14C-labeled lipid efflux by about 60%.

| Compound | apo E secretion (ELISA) [1] | basal Apo E expression/secretion (Western blot of basal media) [2] | transport of 14C-labeled POS to the basal medium [3] | basal Apo E expression/secretion (Western blot of basal media) ([2]; listed as HC) | stimulation of 14C-labeled lipid efflux (in words) [4] | basal Apo E expression/secretion (Western blot of basal media) ([2]; listed as 9 cis-RA) | basal Apo E expression/secretion (Western blot of basal media) ([2]; listed as RA) |
| --- | --- | --- | --- | --- | --- | --- | --- |
| N[C@@H](Cc1cc(I)c(Oc2ccc(O)c(I)c2)c(I)c1)C(=O)O [T3, 3,5,3′-L-triiodothyronine] | upregulate apo E secretion | increased basal expression of Apo E; also recorded: stimulate basal apo E secretion | increased transport of ^14C-labeled POS to the basal medium | – | – | – | – |
| CC(C)CC[C@@H](O)[C@@H](C)[C@H]1CC[C@H]2[C@@H]3CC=C4C[C@@H](O)CC[C@]4(C)[C@H]3CC[C@]12C [22 (R) hydroxycholesterol] | upregulate apo E secretion | increased basal expression of Apo E | increased transport of ^14C-labeled POS to the basal medium | stimulate basal apo E secretion | – | – | – |
| ApoA-I: pure human apoA-I, purified from human plasma; major lipoprotein component of HDL | – | – | – | – | appeared to stimulate | – | – |
| CC1=C(/C=C/C(C)=C\C=C\C(C)=C\C(=O)O)C(C)(C)CCC1 [cis retinoic acid, 9 cis-retinoic acid] | upregulate apo E secretion | – | increased transport of ^14C-labeled POS to the basal medium | – | – | increased basal expression of Apo E | stimulate basal apo E secretion |
